Source: patent publication US7700560B2 (University of Maryland, Baltimore County, priority 2003, dated 2010)
Where two headings read alike, the source gives them in different places.

What was measured:
[1] = molecular target: T1, yeast GlxI (Saccharomyces cerevisiae, UniProt P50107); assay: Competitive inhibition constants (Kis) with yeast GlxI; type: biochemical; settings: sodium phosphate buffer, 50 mM, pH 7, 25° C.; mean (±S.D.) duplicate; read-out: Ki, yGlxI
T1 sequence (P50107 1-326): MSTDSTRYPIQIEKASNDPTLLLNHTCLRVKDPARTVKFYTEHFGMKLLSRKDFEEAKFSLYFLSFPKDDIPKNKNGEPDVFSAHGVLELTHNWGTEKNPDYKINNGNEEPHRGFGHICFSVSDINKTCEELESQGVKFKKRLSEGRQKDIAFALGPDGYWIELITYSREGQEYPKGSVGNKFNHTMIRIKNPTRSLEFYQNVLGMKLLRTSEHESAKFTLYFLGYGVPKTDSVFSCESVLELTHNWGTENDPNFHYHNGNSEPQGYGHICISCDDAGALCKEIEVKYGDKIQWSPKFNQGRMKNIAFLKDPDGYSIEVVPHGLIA
Method: (§1) Competitive inhibition constants (Kis) of bivalent and monovalent enzyme inhibitors with human GlxI or yeast GlxI (yGlxI) were obtained from the change in the initial rates of product formation at various concentrations of the substrate in the presence or absence of the inhibitor. To a 1 ml cuvette containing 50 mM sodium phosphate buffer, pH 7.0, 0.5 mM EDTA, 25° C. and different concentrations of thiohemiacetal substrates with fixed concentrations of inhibitor was added approximately 0.02 U of enzyme. The initial rates of product formation were followed on the basis of the increase in absorbancy at 240 nm. Inhibition constants were obtained by fitting the initial rate data to the equation for competitive inhibition.

[2] = molecular target: T2, human GlxI (Homo sapiens, UniProt Q04760); assay: Competitive inhibition constants (Kis) with human GlxI; type: biochemical; settings: for binds more tightly to hGlxI than to yGlxI: ratio of Ki yGlxI / hGlxI
T2 construct: hGlxI from human erythrocytes; from tissue; host or cells: human erythrocytes
T2 sequence (Q04760 2-184 limits assumed): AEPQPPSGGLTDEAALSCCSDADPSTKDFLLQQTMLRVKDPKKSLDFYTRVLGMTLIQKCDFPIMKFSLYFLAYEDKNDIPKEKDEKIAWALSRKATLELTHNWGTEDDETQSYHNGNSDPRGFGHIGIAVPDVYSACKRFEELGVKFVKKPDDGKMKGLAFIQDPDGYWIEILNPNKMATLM
Method: as §1

[3] = molecular target: T3, bovine liver GlxII (Bos taurus, UniProt Q3B7M2); settings: cited from earlier work
T3 construct: yeast GlxI (yGlxI) and bovine liver GlxII (bGlXII); from tissue; host or cells: bovine liver

[4] = molecular target: T2, human GlxI; assay: Irreversible inactivation kinetics of human GlxI; type: biochemical
Method: Incubation mixtures of enzyme (10 units/ml) and known concentrations of inactivator in phosphate buffer were separately incubated in plastic bullet tubes maintained at 25° C. in a water bath. Aliquots were removed, diluted into a quartz cuvette containing one ml GSH-methylglyoxal-thiohemiacetal, and the rate of product formation (ΔOD (240)) monitored as a function of time. From the initial rate of product formation, the activity of the enzyme was calculated. The slope of a plot of in (fraction of enzyme activity remaining) versus time gives the apparent first-order rate constant (kinact) for inactivation of hGlxI. A plot of kinact versus inactivator concentration (FIG. 7.) gives the dissociation constant (Kd and the maximum value of kinact).

[5] = test system: murine leukemia L1210 cells; settings: cited from earlier work; for IC50: after 72 hours of incubation, diethyl ester prodrugs, read-out: IC50, growth of L1210 cells
[6] = test system: murine melanotic melanoma; settings: cited from earlier work; for efficacy relative to positive control adriamycin: at much higher dosages than adriamycin
[7] = test system: human colon HT29 tumors; settings: cited from earlier work
[8] = test system: human prostate PC3 tumors; settings: cited from earlier work
[9] = test system: DMS114 lung and DU145 prostate xenografts; settings: cited from earlier work
[10] = molecular target: T3, bovine liver GlxII; assay: Competitive inhibition constants (Kis) with bovine liver GlxII; type: biochemical; settings: sodium phosphate buffer, 50 mM, pH 7, 25° C.; mean (±S.D.) duplicate; read-out: Ki, bGlxII
[11] = test system: GSH peroxidase; assay: Inhibition of GSH peroxidase; type: biochemical; settings: up to an inhibitor concentration of 20 μM
[12] = molecular target: T4, human placental GSH transferase (Homo sapiens, UniProt P09211); assay: Inhibition of human placental GSH transferase; type: biochemical; settings: up to an inhibitor concentration of 20 μM
T4 construct: human placental GSH transferase; from tissue; host or cells: human placenta

[13] = sodium phosphate buffer, 50 mM, pH 7, 25° C., mean (±S.D.) triplicate, read-out: Ki, hGlxI
[14] = glycerol (20%) in sodium phosphate buffer, pH 7, 25° C.

T4 sequence (P09211 2-210 limits assumed): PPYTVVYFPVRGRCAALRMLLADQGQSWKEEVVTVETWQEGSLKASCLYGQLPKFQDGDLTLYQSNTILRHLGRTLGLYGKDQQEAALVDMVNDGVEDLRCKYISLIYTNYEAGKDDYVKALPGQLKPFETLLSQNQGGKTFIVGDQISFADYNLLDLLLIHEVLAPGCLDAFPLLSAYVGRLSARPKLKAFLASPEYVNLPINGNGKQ

O=C(O)CNC(=O)C(CSC(=O)N(O)c1ccc(Cl)cc1)NC(=O)CCC(NC(=O)CCNC(=O)CCNC(=O)CCNC(=O)CCNC(=O)CCCCCCC(=O)NCCC(=O)NCCC(=O)NCCC(=O)NCCC(=O)NC(CCC(=O)NC(CSC(=O)N(O)c1ccc(Cl)cc1)C(=O)NCC(=O)O)C(=O)O)C(=O)O (stereo not drawn) [[CHG(β-Ala)n]2sub., n = 4, [CHG (β-ala)4]2suberate diamide]
Ki [1]: 9000 ± 300 nM
Ki [2, 13]: 59.6 ± 2 nM

N[C@@H](CCC(=O)N[C@@H](CSC(=O)N(O)c1ccc(Cl)cc1)C(=O)NCC(=O)O)C(=O)O [CHG, S—(N-p-chlorophenyl-N-hydroxycarbamoyl)glutathione, reference compound]
substrate for bovine liver GlxII [3]: substrates for bovine liver GlxII
binds more tightly to hGlxI than to yGlxI [2]: 78 fold
protection of the enzyme from inactivation by BPG/BBG ([4]; reversible inhibitor present): protects the enzyme from inactivation

N-(tri-beta-ala hydroxyethylamide ethylenediamine bis(hexanedioic acid O-carbonylethyl)S—(N-p-bromophenyl-N-hydroxy-carbamoyl)glutathione [polyBHG2-54]
Ki ([2]; competitive inhibition, read-out: Ki values, human GlxI): 0.3 nM

N[C@@H](CCC(=O)N[C@@H](CSCC(=O)OCCCCOC(=O)CBr)C(=O)NCC(=O)O)C(=O)O
irreversible inactivation of human GlxI [4, 14]: irreversibly inactivate human GlxI
kinact [4, 14]: 0.000267 s⁻¹
Kd ([4]; glycerol (20%) in sodium phosphate buffer, pH 7, 25° C., fit of kobsd vs concentration, read-out: Kd (dissociation constant) for inactivation of human GlxI): 177000 ± 43000 nM

N[C@@H](CCC(=O)N[C@@H](CSC(=O)N(O)c1ccccc1)C(=O)NCC(=O)O)C(=O)O [S—(N-phenyl-N-hydroxycarbamoyl)glutathione]
substrate for bovine liver GlxII [3]: substrates for bovine liver GlxII

CCOC(=O)CNC(=O)C(CSC(=O)N(O)c1ccccc1)NC(=O)CCC(N)C(=O)OCC (stereo not drawn) [PHG(Et)2]
IC50 [5]: 63000 nM

O=C(O)CNC(=O)C(CSC(=O)N(O)c1ccc(Cl)cc1)NC(=O)CCC(NC(=O)CCNC(=O)CCNC(=O)CCNC(=O)CCCCCCC(=O)NCCC(=O)NCCC(=O)NCCC(=O)NC(CCC(=O)NC(CSC(=O)N(O)c1ccc(Cl)cc1)C(=O)NCC(=O)O)C(=O)O)C(=O)O (stereo not drawn) [[CHG(β-Ala)n]2sub., n = 3, [CHG(β-ala)3]2suberate diamide]
Ki [2, 13]: 84.1 ± 2.4 nM

NC(CCC(=O)NC(CSC(=O)N(O)c1ccc(Cl)cc1)C(=O)NCC(=O)OC1CCCC1)C(=O)OC1CCCC1 (stereo not drawn) [CHG(cyclopentyl)2]
efficacy relative to positive control adriamycin [6]: as effective as the positive control adriamycin

CCOC(=O)CNC(=O)[C@H](CSC(=O)N(O)c1ccc(Cl)cc1)NC(=O)CC[C@H](N)C(=O)OCC [CHG(Et)2]
efficacy against HT29 tumors ([7]; bolus administration): efficacy was not observed
potency relative to positive control vincristin ([7]; continuous i.v. infusion): as good as the positive control vincristin
side-effects ([7]; continuous i.v. infusion): without any detectable side-effects
toxicity to L1210 cells versus normal splenic lymphocytes in culture ([5]; Kavarana et al 1999): significantly more toxic to murine leukemia L1210 cells than to normal splenic lymphocytes
IC50 [5]: 5000 nM
efficacy relative to positive control adriamycin [6]: as effective as the positive control adriamycin
accumulation of drug in melanoma ([6]; following i.v. bolus administration): significant accumulation of drug in melanoma
haemopoetic toxicity ([8]; PC3 tumor-bearing mice): without the cisplatin-associated haemopoetic toxicity
growth of PC3 tumors ([8]; bolus i.v. administration): inhibited the growth
potency relative to positive control cisplatin ([8]; bolus i.v. administration): as good as the positive control cisplatin
effect on PC3 tumors ([8]; continuous infusion over 12 days): no effect was observed

N[C@@H](CCC(=O)N[C@@H](CSCc1ccc(Br)cc1)C(=O)NCC(=O)O)C(=O)O [(S-p-bromobenzyl)glutathione (BBG), (S-p-bromobenzyl)glutathione]
efficacy against human lung tumors (DMS114) in mice ([9]; dosages of 100 mg/kg): effective
adverse side effects ([9]; during the 21 days of administration, 100 mg/kg): no evidence of adverse side effects

O=C(O)CNC(=O)C(CSC(=O)N(O)c1ccc(Cl)cc1)NC(=O)CCC(NC(=O)CCNC(=O)CCNC(=O)CCNC(=O)CCNC(=O)CCNC(=O)CCCCCCC(=O)NCCC(=O)NCCC(=O)NCCC(=O)NCCC(=O)NCCC(=O)NC(CCC(=O)NC(CSC(=O)N(O)c1ccc(Cl)cc1)C(=O)NCC(=O)O)C(=O)O)C(=O)O (stereo not drawn) [[CHG(β-Ala)n]2sub., n = 5, [CHG (β-ala)5]2suberate diamide]
Ki [2, 13]: 7.5 ± 0.5 nM

CCOC(=O)CNC(=O)C(CSC(=O)N(O)c1ccc(Br)cc1)NC(=O)CCC(N)C(=O)OCC (stereo not drawn) [BHG(Et)2]
IC50 [5]: 16000 nM

O=C(O)CNC(=O)[C@H](CSC(=O)N(O)c1ccc(Cl)cc1)NC(=O)CC[C@H](NC(=O)CCNC(=O)CCCCCCC(=O)NCCC(=O)N[C@@H](CCC(=O)N[C@@H](CSC(=O)N(O)c1ccc(Cl)cc1)C(=O)NCC(=O)O)C(=O)O)C(=O)O [[CHG(β-Ala)n]2sub., n = 1, [CHG(β-ala)]2Suberate Diamide]
Ki [10]: 35 ± 4 nM
Ki [1]: 3000 ± 200 nM
Ki [2, 13]: 70.1 ± 1.3 nM

O=C(O)CNC(=O)[C@H](CSC(=O)N(O)c1ccc(Cl)cc1)NC(=O)CC[C@H](NC(=O)CCNC(=O)CCNC(=O)CCNC(=O)CCNC(=O)CCNC(=O)CCNC(=O)CCCCCCC(=O)NCCC(=O)NCCC(=O)NCCC(=O)NCCC(=O)NCCC(=O)NCCC(=O)N[C@@H](CCC(=O)N[C@@H](CSC(=O)N(O)c1ccc(Cl)cc1)C(=O)NCC(=O)O)C(=O)O)C(=O)O [[CHG(β-Ala)n]2sub., n = 6, [CHG (β-ala)6]2suberate diamide]
Ki [10]: 142 ± 1 nM
Ki [1]: 7200 ± 100 nM
inhibitory activity on GSH peroxidase [11]: no inhibitory activity
mode of inhibition of hGlxI ([2]; hGlxI from human erythrocytes, reciprocal plot FIG. 4): competitive inhibitor
binding selectivity hGlxI versus bGlxII ([2]; ratio of Ki bGlxII / hGlxI): 148 fold
binds more tightly to hGlxI than to yGlxI [2]: about 7500 fold
Ki [2, 13]: 0.96 ± 0.06 nM
inhibitory activity on human placental GSH transferase [12]: no inhibitory activity

O=C(O)CNC(=O)C(CSC(=O)N(O)c1ccc(Cl)cc1)NC(=O)CCC(NC(=O)CCNC(=O)CCNC(=O)CCCCCCC(=O)NCCC(=O)NCCC(=O)NC(CCC(=O)NC(CSC(=O)N(O)c1ccc(Cl)cc1)C(=O)NCC(=O)O)C(=O)O)C(=O)O (stereo not drawn) [[CHG(β-Ala)n]2sub., n = 2, [CHG(β-ala)2]2suberate diamide]
Ki [10]: 50 ± 5 nM
Ki [2, 13]: 75.9 ± 7.4 nM

N[C@@H](CCC(=O)N[C@@H](CSC(=O)N(O)c1ccc(Br)cc1)C(=O)NCC(=O)O)C(=O)O [BHG, S—(N-p-bromophenyl-N-hydroxy-carbamoyl)glutathione]
substrate for bovine liver GlxII [3]: substrates for bovine liver GlxII

[CHG (β-ala)7]2suberate diamide [[CHG(β-Ala)n]2sub., n = 7]
Ki [10]: 79 ± 8 nM
Ki [1]: 4100 ± 500 nM
Ki [2, 13]: 0.97 ± 0.02 nM

CN(O)C(=O)SC[C@H](NC(=O)CC[C@H](N)C(=O)O)C(=O)NCC(=O)O [S—(N-methyl-N-hydroxycarbamoyl)glutathione]
substrate for bovine liver GlxII [3]: substrates for bovine liver GlxII

NCCC(=O)NC(CCC(=O)NC(CSC(=O)N(O)c1ccc(Cl)cc1)C(=O)NCC(=O)O)C(=O)O (stereo not drawn) [CHG(β-Ala)n, n = 1]
Ki [10]: 1200 ± 12 nM
Ki [2, 13]: 330 ± 6 nM
